Source: publication PMC5432238, “Pre-clinical evaluation of small molecule LOXL2 inhibitors in breast cancer” (Oncotarget, 2017)

Key:
[1] = molecular target: T1, recombinant LOXL2 (Homo sapiens, UniProt Q9Y4K0); assay: Amplex Red activity/inhibition assay, recombinant LOXL2; type: biochemical; conditions: putrescine substrate
T1 construct: purchased R&D Systems
T1 sequence (Q9Y4K0 26-774): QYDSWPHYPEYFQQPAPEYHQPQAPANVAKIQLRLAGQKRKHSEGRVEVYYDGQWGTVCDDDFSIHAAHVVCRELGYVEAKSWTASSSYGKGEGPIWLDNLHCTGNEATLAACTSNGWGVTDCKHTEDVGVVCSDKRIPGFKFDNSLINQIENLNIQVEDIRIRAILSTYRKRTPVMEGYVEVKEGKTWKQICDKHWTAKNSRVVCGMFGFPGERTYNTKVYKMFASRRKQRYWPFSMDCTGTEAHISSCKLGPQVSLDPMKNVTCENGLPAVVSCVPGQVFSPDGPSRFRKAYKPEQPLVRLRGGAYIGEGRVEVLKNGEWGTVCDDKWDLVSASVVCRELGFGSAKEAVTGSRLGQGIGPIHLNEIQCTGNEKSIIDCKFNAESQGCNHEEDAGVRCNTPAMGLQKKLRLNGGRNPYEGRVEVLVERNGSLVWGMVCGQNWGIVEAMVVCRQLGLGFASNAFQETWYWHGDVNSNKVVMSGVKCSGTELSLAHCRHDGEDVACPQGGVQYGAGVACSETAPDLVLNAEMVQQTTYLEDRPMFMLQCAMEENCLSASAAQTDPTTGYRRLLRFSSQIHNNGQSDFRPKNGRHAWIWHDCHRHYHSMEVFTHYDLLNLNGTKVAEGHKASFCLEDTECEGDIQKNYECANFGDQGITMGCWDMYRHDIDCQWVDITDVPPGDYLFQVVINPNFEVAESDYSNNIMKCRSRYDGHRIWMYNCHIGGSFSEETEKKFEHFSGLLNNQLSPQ
Experimental: (§1) The standard amplex red assay has been used as previously described using putrescine as a substrate and native ´fibroblast derived LOX, which was prepared by collecting the supernatant of IMR90 cells, followed by a size filtration > 10 kDa for concentration and < 50 kDa to separate from LOXL2, or recombinant LOXL2 as enzyme (R&D Systems).

[2] = molecular target: T2, native human LOX enzyme (Homo sapiens, UniProt P28300); assay: Amplex Red activity/inhibition assay, native fibroblast-derived LOX; type: biochemical; conditions: native fibroblast (IMR90) derived LOX; putrescine substrate
T2 construct: fibroblast derived LOX, which was prepared by collecting the supernatant of IMR90 cells; endogenous in cells; host or cells: IMR90 cells (supernatant, size filtered > 10 kDa and < 50 kDa)
T2 sequence (P28300 169-417): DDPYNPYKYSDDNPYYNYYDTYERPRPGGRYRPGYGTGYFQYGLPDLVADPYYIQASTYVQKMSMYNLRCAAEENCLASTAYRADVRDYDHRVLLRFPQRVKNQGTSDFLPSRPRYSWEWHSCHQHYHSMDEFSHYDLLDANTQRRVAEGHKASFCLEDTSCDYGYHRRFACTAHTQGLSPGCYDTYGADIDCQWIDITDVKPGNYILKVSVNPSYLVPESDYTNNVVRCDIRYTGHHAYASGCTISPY
Experimental: as §1

N#CCCN [BAPN, β-aminopropionitrile]
pIC50 ± SD against recombinant LOXL2 enzyme [1]: 6.4 ± 0.1
pIC50 ± SD against native human LOX enzyme [2]: 5.5 ± 0.1
